Assays:
[1] = target: T1, RORγ ligand-binding domain fused to Gal4 (Homo sapiens, UniProt P51449); assay: RORγ Reporter Assay (Gal4); format: cell-based; details: compounds of the present disclosure; value from Table 2 herein; read-out: Gal4 assay EC50
T1 construct: Gal4 (galactose-responsive transcription factor); expressed in transfected cells; host or cells: HEK293
T1 sequence (P51449 269-508 limits assumed): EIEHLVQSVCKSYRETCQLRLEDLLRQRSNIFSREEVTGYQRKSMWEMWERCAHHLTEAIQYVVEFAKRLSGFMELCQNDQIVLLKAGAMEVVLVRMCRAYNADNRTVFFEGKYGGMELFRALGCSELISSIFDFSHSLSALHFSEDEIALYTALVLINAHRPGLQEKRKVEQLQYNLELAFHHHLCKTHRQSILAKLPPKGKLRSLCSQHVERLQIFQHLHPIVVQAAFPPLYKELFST
How it was run: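 Percent inhibition was derived from luciferase RLU versus vehicle mean after 24 h compound incubation (37 °C, 0.1% DMSO). The cells were HEK293, transiently co-expressing a Gal4–RORγ ligand-binding-domain fusion plus a UAS-driven luciferase gene.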

Th17 cells = assay: Th17 Assay (IL-17 levels in supernatants of differentiating Th17 cells); format: cell-based; details: 168 h; human naive CD4+ T cells differentiated to Th17 for seven days; IL-17 in supernatants by ELISA
Protocol: The following modifications were made to the manufacturer's protocol: 1) Incubation with Biotin-Antibody Cocktail and Anti-Biotin MicroBeads was prolonged to 30 minutes, and 2) Cells were washed with 40 mL of Miltenyi buffer. […] Test compounds were tested in triplicates, diluted 1000-fold in medium (final DMSO concentration is 0.1%). Incubated for seven days at 37° C., 5% CO2, 95% humidity, and 2-fluoro-4′-[[4-(4-pyridinylmethyl)-1-piperazinyl]methyl]-α,α-bis(trifluoromethyl)-[1,1′-biphenyl]-4-methanol (SR2211 Calbiochem, Cat. No. 557353) was used as positive control. As negative control, cells were differentiated into Th0 using 5 μg/ml anti-CD28 (BD Pharmingen), 10 ng/ml IL-2 (R&D Systems), 2 μg/ml anti-ILA (R&D Systems) and 2 μg/ml anti-IFNγ (R&D Systems) are negative control. IL-17 levels in supernatants were measured with ELISA (R&D Systems).

EC50 [1]: < 100 nM | EC50 (Th17 cells): 83 nM
Compound: NC(=O)CN1CCC(CNc2ncnc(N(Cc3ccc(C(F)(F)F)cn3)C3CC3)c2F)C(F)(F)C1 (single isomer, unassigned) [Example A7-03-1]
